Laboratory results from patent US20060057071A1, “Paramagnetic complexes with pendant crown compounds showing improved targeting-specificity as MRI contrast agents” (priority 2004, published 2006).
“And” between values parts separate entries of the source, which are not always exact repeats. Identical values can stand only once.

Columns and labels:
kidney cortex = test: In vivo MRI, renal intensity enhancement; set-up: species or system rat; conditions: for maximal renal intensity enhancement (IE): 0.1 mmol/kg (standard dosage), first few minutes after administration; for time after administration at which almost all renal IE was diminished: kidney cortex
Experimental: (§1) To study the MRI contrast and biodistribution behavior of gadolinium complexes […] pendant crown ethers, experiments were performed using male Sprague-Dawley (SD) rats that weighted 150-180 g, and were housed at the Wuhan Institute of Physical and Mathematics of the Chinese Academy of Sciences (Wuhan, Hubei Province, China). All procedures conformed to the institutional guidelines for animal welfare. The rat was injected via the femoral vein with 1 mL saline solution of GdL1 in concentrations of 0.1, 0.033, and 0.02 mM/kg, which are the standard dosage, one third and one fifth of the standard dosage used in clinic currently. MR imaging was performed on a 4.7 T Bruker BIO-SPEC-47/30 MRI scanner with a custom spiral surface coil. The animal was scanned in the prone position in the MRI experiment. […] The total duration of the dynamic scanning lasted up to 400 min after the administration, with an image every 4 min. A water tube was placed in the field of view as a phantom reference. The intensity enhancement (IE) of the region of interest (RI) at time point t is expressed by IE=100% (RI(t)-RI(0))/RI(0) where RI(t) corresponds to the normalized signal intensity as measured at time point, t and RI(0) is the normalized signal intensity precontrast.

[1] = Variable-temperature 17O NMR transverse relaxation rate; type: physicochemical; conditions: for water exchange rate kex^298 / TM: 25° C.; for TM: pH 6.9, derived from VT 17O NMR spectroscopy; for exchange lifetime TM of inner-sphere coordinated water: 298 K (25° C.)
Description: (§2) Measuring the relaxation rates of an abundant nuclear species as a function of the magnetic field over a wide range is called relaxometry. A relaxometry profile is a plot of the nuclear magnetic relaxation rate, usually 1/T1, as a function of the Larmor frequency or the magnetic field. This profile is also called a Nuclear Magnetic Resonance Dispersion (NMRD) profile. Compared with the NMRD profile, the prominent advantage of the ^17O NMR technique is that it allows the accurate determination of the water exchange rate 1/TM. This is a consequence of the oxygen nucleus being closer to the paramagnetic centre when bound in the inner-sphere, wherein the outer-sphere contributions to the relaxation rates are negligibly small. With the help of NMRD profiles, ^17O NMR measurements, and the Soloman-Bloemnergen-Morgan theory, several important parameters, such as TM, TR, TV, Δ^2 and rH, can be measured.
The variable-temperature ^17O NMR measurements were recorded on a JEOL EX-90 (2.1 T) spectrometer that was equipped with a 5 mm probe, by using a D2O external lock. The experimental settings were: spectral width of 10000 Hz, pulse width of 7 μs, acquisition time of 10 ms, 1000 scans, and no sample spinning. Solutions containing 2.6% of ^17O isotope were used. The observed transverse relaxation rates (R2obs^O) were calculated from the signal width at half height.

[2] = 298 K; cited from earlier work
[3] = 1H NMRD profiles (water proton relaxivity); type: physicochemical; conditions: 25° C., pH 6.9, fits of NMRD profile and 17O NMR
Description: as §2
Water proton nuclear magnetic resonance dispersion NMRD profile is used to record the longitudinal water proton relaxation rates as a function of magnetic fields. The method is, in principle, sensitive to all of the parameters that influence relaxivity. The ^1H NMRD profiles were measured over a continuum of magnetic field strength from 0.00024 to 0.24 T (corresponding to 0.01-10 MHz proton Larmor frequency, 1 T≈41.7 MHz) on a Spinmaster FFC (Stelar, Mede (PV)), which is a fast field-cycling NMR relaxometer installed at the LIMA Laboratory (Bioindustry Park, Ivrea (TO), Italy). The relaxometer worked under complete control with an absolute uncertainty in 1/T1 of ±2%. The NMRD profiles were measured using 1-2 mM solutions of the complexes.

MIHA cells [4] = test: AO/EB staining, laser scanning confocal microscopy; type: cell-based; conditions: 10 μM, 1 h, 2 h, 8 h, 24 h incubation, 37° C.
Experimental: MIHA cells in the absence (control) and presence of Gd-DOTA (10 μM), Gd-DO3A (10 μM), and GdL1 (10 μM) incubated at 37° C. and 5% CO2, 95% air in a humidified incubator for 1 h, 2 h, 8 h, and 24 h, respectively.
Based on cell morphology and cell membrane integrity, normal, necrotic, and apoptotic cells can be distinguished using laser confocal microscopy. FIG. 22 gives the cell morphology in the absence and presence of Gd-DOTA (10 μM), Gd-DO3A (10 μM), and GdL1 (10 μM) at various time intervals after the incubation. In the absence or presence of the Gd^3+ complexes, the nuclei of the living cells were stained as bright blue spots in the nucleus.

[5] = 1H NMRD profiles (water proton relaxivity); type: physicochemical; conditions: 20 MHz, 25° C., pH 6.9
[6] = cited from earlier work
liver parenchyma = test: In vivo MRI, hepatic intensity enhancement; set-up: species or system rat; conditions: for maximal hepatic IE: rat
Experimental: as §1

MIHA cells [7] = test: In vitro cytotoxicity, MTT / XTT cell proliferation assay; type: cell-based
Experimental: To further investigate the potential ability of GdL1 as an NMRI contrast agent, its cytotoxicity was measured by MTT assay. The toxicity of GdL1 was determined from the dose-dependence of surviving cells after exposure to this Gd^3+ complex at different time intervals. For comparison, the cytotoxicities of Gd-DOTA and Gd-DO3A were measured under the same conditions.
To evaluate the toxicity of prepared Gd^3+ complexes, a calorimetric assay (XTT-based) for the non-radioactive quantification of cell proliferation was applied. In the cell proliferating process, the added tetrazolium salt XTT was cleaved to a formazan dye by metabolically active cells, and the quantification of cell growth was achieved by the variation of the absorbance at 492 nm. […] Different concentrations of drugs were adjusted by performing serial dilution. The incubation period of the cell culture ranged from 1, 2, 8, and 24 hrs. XTT dye at a concentration of 5 mg/mL (sigma, St. Louis, Mo.) was added, and the plates were incubated for 12 h in a moist chamber at 37° C. The optical density was determined by eluting the dye with dimethyl sulfoxide, and the absorbance was measured at 570 nm. At least three independent experiments were performed.

Row | Compound | maximal renal intensity enhancement (IE) (kidney cortex; rat) | time after administration at which almost all renal IE was diminished (kidney cortex; 0.1 mmol/kg) [min] | water exchange rate kex^298 [1] [s⁻¹] | TM [1] [ns] | exchange lifetime TM of inner-sphere coordinated water ([1]; 2.12 T) [ns] | thermodynamic stability log K [2] | D [3] [cm^2s^−1] | TR [3] [ps] | TV [3] [ps] | a [3] [Å] | q [3] | r [3] [Å] | Δ^2 [3] [s⁻¹] | cell morphology (apoptotic or necrotic cells) (MIHA cells [4]) | proton relaxivity r1 (r1p) [5] [mM⁻¹ s⁻¹] | time after administration of maximal hepatic IE (liver parenchyma; 0.1 mmol/kg) [min] | maximal hepatic IE (liver parenchyma; 0.1 mmol/kg (standard dosage)) [%] | time after administration of maximal hepatic IE (liver parenchyma; 0.033 (0.03) mmol/kg) [min] | maximal hepatic IE (liver parenchyma; 0.033 (0.03) mmol/kg) [%] | also measured
1 | O=C([O-])CN1CCNCCN(CC(=O)[O-])CCN(CC(=O)[O-])CC1.[Gd+3] [Gd-DO3A, reference compound] | 140% | 120 | 6.3e+06 | 160 | 160 | 22.0 | 2.24E-5 | 66 | 14 | 3.9 | 2 | 3.15 | 4.6e+19 | no obvious apoptotic or necrotic cells were found | 5.72 | – | – | – | – | –
2 | O=C([O-])CN1CCN(CC(=O)[O-])CCN(CC(=O)O)CCN(CC(=O)[O-])CC1.[Gd+3] [Gd-DOTA, reference compound] | 110% and 123% | 70 | 4.1e+06 | 300 | 245 | 24.6 | 2.24E-5 | 73 | 7.7 | 4.0 | 1 | 3.1 | 1.3e+19 | no obvious apoptotic or necrotic cells were found | 4.74 | 30 to 40 | 70 | 30 to 40 | 30 | r1p ([6]; 20 MHz, 298 K, typical values): 4.74 mM⁻¹ s⁻¹; relaxivity ([6]; 37° C., 20 MHz): 3.4 mM⁻¹ s⁻¹; bound water molecular resident lifetime TM ([6]; 298 K, typical values): about 244 ns; hepatic IE (liver parenchyma; 0.02 mmol/kg): no remarkable hepatic IE was detected; time after which hepatic IE faded away (liver parenchyma; 0.1 and 0.033 mmol/kg): 100 min
3 | O=C([O-])CN1CCN(CCN2CCOCCOCCOCCOCC2)CCN(CC(=O)[O-])CCN(CC(=O)[O-])CC1.[Gd+3] [GdL1, Gd^3+ Complex of L1] | ~200% | – | 1.82e+07 | 55 | 55 | – | 2.24E-5 | 146 | 13 | 4.0 | 2 | 2.98 | 8e+19 | no obvious apoptotic or necrotic cells were found | 9.65 | 90 to 100 | 105 | 60 to 100 | 90 | resident lifetime in renal tissue (kidney cortex; 0.1 mmol/kg): > 3 h; renal IE preserved 250 minutes after injection (kidney cortex; 0.1 mmol/kg, 250 min): 40%; kidney contrast enhancement two hours after the injection (kidney cortex; 0.1 mmol/kg, two hours): faint contrast enhancement could still be observed; maximal renal IE (kidney cortex; 0.033 (0.03) mmol/kg, one third of standard dose, rat): 123% and 120%; time for which strong renal intensity enhancement is maintained (kidney cortex; summary statement): more than four hours; temperature at which R2p attains its maximum ([1]; 2.12 T, range 273-340 K): ~270 K; time after administration of maximal hepatic IE (liver parenchyma; 0.02 mmol/kg): 60 min; hepatic IE maintained after 3 h (liver parenchyma; 0.02 mmol/kg, 3 h): over 40%; hepatic IE a few minutes after the injection (liver parenchyma; 0.03 mmol/kg): about 50%; hepatic IE persisting after 320 min (liver parenchyma; 0.03 mmol/kg, 320 min): 50%; time for which high hepatic IE stays on a plateau (liver parenchyma; 0.033 mmol/kg): more than 4 h; hepatic IE level on plateau (liver parenchyma; 0.033 mmol/kg, more than 4 h after administration): > 60%; resident lifetime in hepatic tissues (liver parenchyma; 0.1 mmol/kg): > 4 h; time after administration at which obvious enhancement of the liver was monitored (liver parenchyma; 0.1 mmol/kg): 30 min; time for which strong/high hepatic IE was maintained (liver parenchyma; 0.1 mmol/kg): more than 4 h; time for which strong hepatic intensity enhancement is maintained (liver parenchyma; summary statement): more than four hours; viability of the cells (MIHA cells [7]; 1×10^−5 mol L^−1 to 1×10^−2 mol L^−1, 1 h, 2 h, 8 h, 24 h incubation): above 90%; effect on cell viability / cytotoxicity (MIHA cells [7]; up to 1×10^−2 M, up to 24 h incubation): not affected obviously
